Where two headings read alike, the source gives them in different places.
What was measured:
[1] = test system: inguinal fat pad of obese mouse; assay: In vivo monitoring of bile salts induced fat loss; settings: 1% solutions, 5 times during 2 weeks
[2] = test system: inguinal fat pads of obese mice; assay: Quantitation of in vivo necrotic area (TTC staining) and histology of injected fat pads
Procedure: Various concentrations of bile salts (DCA, CDCA, and CA) solutions in 100 μl volume of PBS were injected to the inguinal fat pads of obese mice. Mice were sacrificed at 1 day after the injection. Mouse inguinal fat pads were stained with 2% TTC (Sigma-Aldrich Chemical, St. Louis, Mo., USA) in PBS for 2 hour to identify the non-necrotic and necrotic areas and subsequently immersed in 10% formalin to enhance the contrast. […] The appearance and area of necrotic fat regions were captured and imaged by scanner. The necrotic area of fat pad treated DCA, CDCA, CA, and PBS was calculated by Image J.

[3] = test system: Inguinal fat (subcutaneous fat) pads; assay: Ex vivo fat lysis assay (MTT); type: cell-based, diet induced obese mice; settings: for ED50 (% w/v); EC50 values of bile salts required to lysis of fat tissues ex vivo: fat tissues of high fat diet mice, 10 minutes, MTT; for effect of increased pH of solution on fat lysis activities: pH 6.0 ˜pH 9.0, bile salt at EC50 in pH 7.4; for EC50 fold higher than DCA or CDCA, ex vivo: relative to DCA or CDCA
Procedure: Inguinal fat (subcutaneous fat) pads were excised from diet induced obese mice and chopped to about the same size. 100 mg tissue samples were transferred to 48 well plates and incubated with 350 μl of various concentrations and pH of DCA, CDCA, CA, and phosphate buffer for 10 minutes. 70 μl of MTT solution (5 mg/ml in PBS) was added into each well and incubated for overnight at 37° C. The solution was removed and precipitated formazan product was dissolved in 300 μl of DMSO. Tissue viability was monitored by measuring the optical density at 570 nm (OD570) using a microplate reader.

3T3-L1 adipocytes = assay: Cell lysis effect by detergent in vitro (MTT assay); type: cell-based; settings: for EC50 (concentration that kills 50% of the cells) / ED50 (% w/v); EC50 values of bile salts required to lysis of adipose cells in vitro: differentiated 3T3-L1 adipocytes; for ED50 (% w/v); EC50 values of bile salts required to lysis of adipose cells in vitro: 1 hour, MTT
Procedure: To induce adipocyte differentiation, 3T3-L1 pre-adipocytes were seeded in 96-well plate (5×10^3 cells/well) and grown until 2 days post-confluence (day 0) and then treated for 2 days with growth media plus MDI (0.5 μM methylisobutylxanthine, 1 μM dexamethasone and 10 ug/ml insulin; all from Sigma-Aldrich Chemical, St. Louis, Mo., USA), followed by 2 days of treatment with the media containing 10 ug/ml insulin alone. Medium was replaced every 2 days for the following 8 days. Differentiated adipocytes in 96 well plate were washed twice with PBS and incubated in various concentrations of bile salts in serum free DMEM. After 1 hour incubation at 37° C., media were changed and 20 μl of MTT solution (5 mg MTT/ml in PBS) was added into each well and incubated for 1 hour at 37° C. The resultant formazan product was dissolved in 100 μl of DMSO/well and cell viability was determined by measuring the optical density at 570 nm (OD570) using a microplate reader.

tails of female ICR mice = assay: In vivo monitoring of tissue specific effects of bile salts (tail injection); settings: pH 7.4 solution; for skin layers of tails / fat layers of tails: 14 days post-injection; for fat layers of tails: compared to saline
rat paws [4] = assay: Bile salt-induced paw edema; settings: 4 hours after injection; for severity of edema (paw thickness): concentrations and pHs showing similar tissue lysis effects
Procedure: (§1) Male SD rats (6 weeks old) were purchased from Koatech Co. (Seoul, Korea) and used after 1 week of acclimation. Rats (200˜230 g) were randomly selected and the volume of intact rats paw was measured in all groups using a digital caliper (Bluebird, Seoul, Korea). […] To induce the edema, rats received 100 μl of various bile salts and PBS into the plantar region of the hind foot of rats. Measurements of the paw volume were performed by a caliper immediately before the bile salts injection and 4 hours after injection.

[5] = Stability of bile salts in aqueous solution; settings: for pH in which aqueous solution remained stable: 1% (w/v), 10 mM phosphate buffer, 25° C.; for Solution stability of bile salt: 1% in 10 mM phosphate buffer; for pH stability: summary, Table 4
Procedure: 0.01 g of bile salts (UDCA, DCA, CDCA and CA) were dissolved in 1 ml of phosphate buffer and placed at room temperature for 10 days.

mice skin = assay: In vivo monitoring of adverse events on the skin; settings: for skin lesions on the injected area: subcutaneous, pH 7.4, 0.5-1.5%
Procedure: Injections were repeated 1 more times 3 days after first injection. […] The severity of skin lesion was assessed using the following criteria. The total skin severity score was defined as the sum of the individual scores for each of the following character and length of lesion. Length of lesion is determined by measuring the longest diameter of the largest lesion identified. Measured length should involve the lesion only and not cross over clinically normal skin. The length of lesion involvement within each injected site was scored from 0 to 3, where 0=no involvement; 1=<0.2 cm, 2=0.2˜0.5 cm, 3=>0.5 cm of the length of site affected. The character of lesion was scored from 0 to 3, where 0=no lesion present, 1=excoriation only one or one, small punctate crust (<2 mm), 2=multiple, small punctate crusts or coalescing crust (>2 mm), 3=erosion or ulceration.

rat paws [6] = settings: in vivo
Procedure: as §1

[7] = test system: inguinal fat pads of obese mice; parameters: Inflammation of injection site: key to the marks not given beside the values; settings: mouse, in vivo

## C[C@H](CCC(=O)O)[C@H]1CC[C@H]2[C@@H]3[C@H](O)C[C@@H]4C[C@H](O)CC[C@]4(C)[C@H]3C[C@H](O)[C@]12C [CA, cholate]
[1]
  histology of injected area (H & E): Fibrotic areas
  lesions in the administered area of fat tissues: yellowish lesions
[2]; mouse, in vivo
  concentration enough to show similar necrotic effects with DCA and CDCA: about two fold higher concentration
  concentration enough to show similar tissue lysis effect with 1% DCA (pH 8.3): 1.5%
  necrotic areas at the same concentration: smaller than DCA or CDCA
[2]; mouse, in vivo, pH 7.4
  concentration showing similar tissue lysis activity with the injection of 1% DCA: about 2%
[3]
  EC50 concentrations, ex vivo condition: 0.0727%
  ED50 (% w/v); EC50 values of bile salts required to lysis of fat tissues ex vivo: 0.0727 % w/v
  effect of increased pH of solution on fat lysis activities: greatly diminishes the fat lysis activities
  EC50 fold higher than DCA or CDCA, ex vivo: 4 fold
[3]; solutions above the pH 9
  fat lysis activities above the pH 9: mostly lost their fat lysis activities
3T3-L1 adipocytes
  EC50 (concentration that kills 50% of the cells): 0.42%
  ED50 (% w/v); EC50 values of bile salts required to lysis of adipose cells in vitro: 0.42 % w/v
3T3-L1 adipocytes; up to 2% concentration
  viability of adipocyte cells: showed cell killing
Tails of female ICR mice
  skin layers of tails: not severely damaged
  fat layers of tails: disrupted
Rat paws [4]
  increment of foot thickness relative to the case of DCA: less than one-half
  severity of edema (paw thickness): very mild
[5]
  pH in which aqueous solution remained stable: < 7.0
  pH stability: <7.0
[5]; pH 6.5, 25° C.
  Solution stability of bile salt: Precipitation
[5]; pH 6.7, 25° C.
  Solution stability of bile salt: Precipitation
[5]; pH 7.0, 25° C.
  Solution stability of bile salt: Stable
[5]; pH 7.2, 25° C.
  Solution stability of bile salt: Stable
[5]; pH 7.4, 25° C.
  Solution stability of bile salt: Stable
[5]; pH 7.6, 25° C.
  Solution stability of bile salt: Stable
[5]; pH 7.8, 25° C.
  Solution stability of bile salt: Stable
[5]; pH 8.0, 25° C.
  Solution stability of bile salt: Stable
[5]; pH 8.3, 25° C.
  Solution stability of bile salt: Stable
Mice skin; higher dose (1.5%)
  skin lesions: Only small punctate lesions
Mice skin; highest dose of CA (1.5%) compared to lowest dose of DCA (0.5%)
  skin damage score: lower damage score
Mice skin; lower doses
  skin lesions: no detectable lesions
Mice skin
  skin lesions on the injected area: significantly less lesions

## C[C@H](CCC(=O)O)[C@H]1CC[C@H]2[C@@H]3C[C@H](O)[C@@H]4C[C@H](O)CC[C@]4(C)[C@H]3CC[C@]12C [HDCA, hyodeoxycholate]
[2]; necrotic area, FIGS. 12B and 12C
  tissue lysis effect with higher concentration: did not increased proportionally
[3]
  EC50 concentrations, ex vivo condition: 0.0250%
  ED50 (% w/v); EC50 values of bile salts required to lysis of fat tissues ex vivo: 0.0250 % w/v
  effect of increased pH of solution on fat lysis activities: greatly diminishes the fat lysis activities
  EC50 fold higher than DCA or CDCA, ex vivo: 1.4 fold
3T3-L1 adipocytes
  EC50 (concentration that kills 50% of the cells): 0.42%
  ED50 (% w/v); EC50 values of bile salts required to lysis of adipose cells in vitro: 0.249 % w/v
3T3-L1 adipocytes; similar concentration (0˜1%)
  cell killing effect compared to CA: slightly higher cell killing effect compared to CA
Rat paws [6]
  Adverse event: edema: ++
  severity of edema (paw thickness): slightly lower symptom
[5]; pH 6.5, 25° C.
  Solution stability of bile salt: Gelation
[5]; pH 6.7, 25° C.
  Solution stability of bile salt: Gelation
[5]; pH 7.0, 25° C.
  Solution stability of bile salt: Gelation
[5]; pH 7.2, 25° C.
  Solution stability of bile salt: Gelation
[5]; pH 7.4, 25° C.
  Solution stability of bile salt: Stable
[5]; pH 7.6, 25° C.
  Solution stability of bile salt: Stable
[5]; pH 7.8, 25° C.
  Solution stability of bile salt: Stable
[5]; pH 8.0, 25° C.
  Solution stability of bile salt: Stable
[5]; pH 8.3, 25° C.
  Solution stability of bile salt: Stable
[5]
  pH stability: <7.4
[7]
  Inflammation of injection site: +++
  histological changes in fat pads (H & E): Infiltration of polymorphonuclear (PMN) cells into the fat pad tissue was observed
  inflammation after injection to subcutaneous fat: severe inflammation

## deoxycholate [DCA]
[1]
  histology of injected area (H & E): Fibrotic areas
  lesions in the administered area of fat tissues: yellowish lesions
[2]; necrotic area after injection
  tissue lysis activity at pH 8.3 compared with pH 7.4: lower than the activity of DCA preparation in condition of pH 7.4
[3]
  EC50 concentrations, ex vivo condition: 0.0179%
  ED50 (% w/v); EC50 values of bile salts required to lysis of fat tissues ex vivo: 0.0179 % w/v
  effect of increased pH of solution on fat lysis activities: do not show greatly decreased fat lysis activity
3T3-L1 adipocytes
  EC50 (concentration that kills 50% of the cells): 0.051%
  ED50 (% w/v); EC50 values of bile salts required to lysis of adipose cells in vitro: 0.0509 % w/v
3T3-L1 adipocytes; low concentration (below 0.1%)
  viability of adipocyte cells: reduced the viability of adipocyte cells
Tails of female ICR mice
  skin layers of tails: not severely damaged
  fat layers of tails: disrupted
Tails of female ICR mice; same concentration of DCA and CA
  damages of muscles in tails: prominent
Rat paws [4]
  severity of edema (paw thickness): most severe edema phenotype
[5]
  pH in which aqueous solution remained stable: lower than 8.3
  pH stability: <8.3
[5]; pH 6.5, 25° C.
  Solution stability of bile salt: Gelation
[5]; pH 6.7, 25° C.
  Solution stability of bile salt: Gelation
[5]; pH 7.0, 25° C.
  Solution stability of bile salt: Gelation
[5]; pH 7.2, 25° C.
  Solution stability of bile salt: Gelation
[5]; pH 7.4, 25° C.
  Solution stability of bile salt: Gelation
[5]; pH 7.6, 25° C.
  Solution stability of bile salt: Gelation
[5]; pH 7.8, 25° C.
  Solution stability of bile salt: Gelation
[5]; pH 8.0, 25° C.
  Solution stability of bile salt: Gelation
[5]; pH 8.3, 25° C.
  Solution stability of bile salt: Stable
Mice skin; higher concentrations
  skin lesions: Large lesions, erosions and ulcers
Mice skin; lowest dose (0.5%)
  skin lesions: small punctate lesions
Mice skin
  skin lesions on the injected area: severe skin lesions

Source: patent US10729700B2, “Methods and compositions of bile acids and salts for reduction of fat” (priority 2014, dated 2020)
